Test results reported in patent US11459387B2, “Anti-CD147 antibody” (DAIICHI SANKYO COMPANY, LIMITED, priority 2017, dated 2022).

Tests used:
[1] = tested on: human pancreatic line BxPC-3; test: SMAD4-negative BxPC-3 pancreatic cancer-bearing model in BALB/c-nu mice; assay type: in vivo; conditions: gemcitabine 200 mg/kg via the tail vein 8, 15, 22 days after the inoculation
Description: The transcription factor, SMAD4, is known as one of the molecules important for activation of SMAD signaling (Zang, et al., Current Biology, 270-276, 1997). It is known that SMAD signaling is partially impaired due to genetic defects of SMAD4 in some pancreatic cancers (Hahn, et al., Science, 350-353, 1996). […] 2.5×10^6 cells of human pancreatic line BxPC-3 (ATCC, Cat. CRL-1687) were suspended in PBS containing […] (Corning Inc., Cat. 354234), and the suspension was inoculated subcutaneously into the axilla of 6 week-old female BALB/c-nu mouse (CAnN. Cg-Foxn1nu/CrlCrlj, purchased from CHARLES RIVER LABORATORIES JAPAN, INC). […] As a control drug, gemcitabine (Eli Lilly Japan K.K., Gemzar®) that is a therapeutic agent for pancreatic cancer was administered to mice bearing tumor via the tail vein at 200 mg/kg 8, 15, 22 days after the inoculation (n=5). The major axis and the minor axis of the inoculated tumor were measured twice a week using an electronic digital caliper (available from MITUTOYO CORPORATION) to calculate the tumor volume by the following formula. Tumor volume (mm^3)=½×minor axis (mm)×minor axis (mm)×major axis (mm)

[2] = tested on: human pancreatic line MIA PaCa-2; test: MIA PaCa-2 model in Nude mice, humanized antibodies with different binding activities; assay type: in vivo; conditions: gemcitabine 400 mg/kg via the tail vein 3 and 10 days after the inoculation
Method: 5×10^6 cells of human pancreatic line MIA PaCa-2 were suspended in PBS containing 50% GFR-Matrigel (Corning Inc., Cat. 354230), and the suspension was inoculated subcutaneously into the axilla of 4-week old female Nude mice (BALB/c Slc-nu/nu, purchased from Japan SLC, Inc). […] As a control drug, gemcitabine (purchased from Eli Lilly Japan K.K.), which is a standard therapeutic agent for pancreatic cancer, was administered to cancer-bearing mice via the tail vein at 400 mg/kg 3 and 10 days after the inoculation (n=6). The major axis and the minor axis of the inoculated tumor were measured twice a week using an electronic digital caliper (available from MITUTOYO CORPORATION) to calculate the tumor volume by the following formula. Tumor volume (mm^3)=½×minor axis (mm)×minor axis (mm)×major axis (mm)

[3] = tested on: gemcitabine-resistant MIA PaCa-2 tumors; test: Gemcitabine-resistant MIA PaCa-2 pancreatic cancer tumor model in NOD-scid mice; assay type: in vivo, human
Description: The antitumor efficacy of the CD147 antibody in a gemcitabine-resistant pancreatic cancer tumor model was investigated. 5×10^6 cells of human pancreatic line MIA PaCa-2 were suspended in PBS containing 50% GFR-Matrigel (Corning Inc., Cat. 354230), and the suspension was inoculated subcutaneously into the axilla of 5 week-old female NOD-scid mice (NOD. CB17-Prkdc/J, CHARLES RIVER LABORATORIES JAPAN, INC). Gemcitabine (Eli Lilly Japan K.K.), which is a standard therapeutic agent for pancreatic cancer, was intraperitoneally administered at 400 mg/kg 6 days after the inoculation, and grouping of mice in which gemcitabine-resistant tumors were confirmed to grow was performed based on tumor size one week later. Gemcitabine was intraperitoneally administered to the control group at 400 mg/kg (n=5) 13 days (grouping date) and 20 days after the inoculation. […] The major axis and the minor axis of the inoculated tumor were measured twice a week using an electronic digital caliper (available from MITUTOYO CORPORATION) to calculate the tumor volume by the following formula. […]

[4] = tested on: human pancreatic line MIA PaCa-2; test: MIA PaCa-2 pancreatic xenograft model in NOD-scid mice, humanized antibodies; assay type: in vivo; conditions: gemcitabine 400 mg/kg ip 7 and 14 days after the inoculation
Method: 5×10^6 cells of human pancreatic line MIA PaCa-2 were suspended in PBS containing 50% GFR-Matrigel (Corning Inc., Cat. 354230), and the suspension was inoculated subcutaneously into the axilla of 4 week-old female NOD-scid mice (NOD. CB17-Prkdc/J, purchased from CHARLES RIVER LABORATORIES JAPAN, INC). […] As a control drug, gemcitabine (purchased from Eli Lilly Japan K.K.) that is a standard therapeutic agent for pancreatic cancer was administered intraperitoneally to cancer-bearing mice at 400 mg/kg 7 and 14 days after the inoculation (n=5). The major axis and the minor axis of the inoculated tumor were measured twice a week using an electronic digital caliper (available from MITUTOYO CORPORATION) to calculate the tumor volume by the following formula.

SMILES: Nc1ccn([C@@H]2O[C@H](CO)[C@@H](O)C2(F)F)c(=O)n1 [gemcitabine, reference compound]
- sensitivity of BxPC-3 tumor (in words) [1]: resistant
- tumor growth inhibition rate [2]: 66%
- average tumor size ([3]; gemcitabine 400 mg/kg ip 6, 13 and 20 days after the inoculation, 28 days after the inoculation): 1269 mm^3
- regressing tumors (in words) ([3]; gemcitabine 400 mg/kg ip alone): no regressing tumors were observed
- tumor disappearance (in words) [4]: no tumor disappearance was recognized
- tumor growth inhibition rate ([4]; NOD-scid mice): 71%
